Laboratory results: patent publication US11046658B2, “Aminopyrazine derivatives as PI3K-γ inhibitors” (Incyte Corporation, priority 2018, dated 2021)
Counter-ions that a name gives are not always drawn. Like-named read-outs stand apart in the source and are kept apart here.

Test system: Phosphorylated Ribosomal Protein S6 (RPS6) in THP-1 cells
Assay: THP-1 RPS6 ELISA Assay
Format: cell-based, Human
Conditions: Homo sapiens
Procedure: To measure the Phosphorylated Ribosomal Protein S6 (RPS6) in cell lysates, THP-1 cells (Human Acute Monocytic Leukemia) are purchased from ATCC (Manassas, Va.) and maintained in RPMI with 10% FBS (Gibco/Life Technologies, Carlsbad, Calif.). For the assay, THP-1 cells are serum starved overnight in RPMI, then plated in RPMI (2×10^5 cells/well in 90 μL) into 96-well flat-bottom tissue culture treated plates (Corning, Corning, N.Y.), in the presence or absence of a concentration range of test compounds. Covered plates are incubated for 2 hours at 37° C., 5% CO2 then treated with or without 10 nM MCP-1(MYBioSource, San Diego, Calif.) for 15 minutes at 37° C., 5% CO2. Plates are centrifuged at 1600 RPM and supernatants are removed. Cells are lysed in Lysis Buffer (Cell Signaling, Danvers, Mass.) with Protease Inhibitor (Calbiochem/EMD, Germany), PMSF (Sigma, St Louis Mo.), HALTS (Thermo Fisher, Rockford, Ill.) for 30 min on wet ice. Cell lysates are frozen at −80 OC before testing. The lysates are tested in the Human/Mouse/Rat Phospho-RPS6 ELISA (R&D Systems, Inc. Minn, Minn.). The plate is measured using a microplate reader (SpectraMax M5—Molecular Devices, LLC Sunnyvale, Calif.) set to 450 nm with a wavelength correction of 540. IC50 determination is performed by fitting the curve of inhibitor percent inhibition versus the log of the inhibitor concentration using the GraphPad Prism 5.0 software.

[1] = Table A3, THP-1 cells, 10 nM MCP-1, read-out: PI3Kγ_THP1_RPS6_ELISA IC50
[2] = Table A2, THP-1 cells, 10 nM MCP-1, read-out: PI3Kγ_THP1_RPS6_ELISA IC50
[3] = Table A1, THP-1 cells, 10 nM MCP-1, read-out: PI3Kγ_THP1_RPS6_ELISA IC50
[4] = THP-1, read-out: PI3Kγ_THP1_RPS6_ELISA IC50 (nM)

SMILES: Cc1ccc(C(O)(C(N)=O)C(F)(F)F)cc1-c1cnc(N)c(-c2ccnc(CO)c2)n1 (stereo not drawn) [Example 85, 2-(3-(5-amino-6-(2-(hydroxymethyl)pyridin-4-yl)pyrazin-2-yl)-4-methylphenyl)-3,3,3-trifluoro-2-hydroxypropanamide bistrifluoroacetate]
- IC50 [1]: < 500 nM

SMILES: Cc1ccc(C(O)(C(N)=O)C(F)(F)F)cc1-c1cnc(N)c(C#Cc2cncnc2)n1 (stereo not drawn) [Example 56, 2-(3-(5-amino-6-(pyrimidin-5-ylethynyl)pyrazin-2-yl)-4-methylphenyl)-3,3,3-trifluoro-2-hydroxypropanamide]
- IC50 [2]: < 100 nM

SMILES: CCNC(=O)c1nc(-c2cc(C(O)(C(N)=O)C(F)(F)F)ccc2C)cnc1N (stereo not drawn) [Example 7, 3-Amino-6-(5-(3-amino-1,1,1-trifluoro-2-hydroxy-3-oxopropan-2-yl)-2-methylphenyl)-N-ethylpyrazine-2-carboxamide trifluoroacetate]
- IC50 [3]: < 100 nM

SMILES: Cc1ccc(C(O)(C(N)=O)C(F)(F)F)cc1-c1cnc(N)c(C#Cc2ccccn2)n1 (stereo not drawn) [Example 55, 2-(3-(5-amino-6-(pyridin-2-ylethynyl)pyrazin-2-yl)-4-methylphenyl)-3,3,3-trifluoro-2-hydroxypropanamide]
- IC50 [2]: < 100 nM

SMILES: Cc1ccc(C(O)(C(N)=O)C(F)(F)F)cc1-c1cnc(N)c(N2CCN(c3ccccn3)CC2)n1 (stereo not drawn) [Example 117, 2-(3-(5-amino-6-(4-(pyridin-2-yl)piperazin-1-yl)pyrazin-2-yl)-4-methylphenyl)-3,3,3-trifluoro-2-hydroxypropanamide trifluoroacetate]
- IC50 [4]: < 100 nM

SMILES: CNC(=O)c1ccc(-c2nc(-c3cc(C(O)(C(N)=O)C(F)(F)F)ccc3C)cnc2N)cc1 (stereo not drawn) [Example 89, 4-(3-amino-6-(5-(3-amino-1,1,1-trifluoro-2-hydroxy-3-oxopropan-2-yl)-2-methylphenyl)pyrazin-2-yl)-N-methylbenzamide trifluoroacetate]
- IC50 [1]: < 500 nM

SMILES: Cc1ccc(C(O)(C(N)=O)C(F)(F)F)cc1-c1cnc(N)c(C#Cc2cnccn2)n1 (stereo not drawn) [Example 57, 2-(3-(5-amino-6-(pyrazin-2-ylethynyl)pyrazin-2-yl)-4-methylphenyl)-3,3,3-trifluoro-2-hydroxypropanamide]
- IC50 [2]: < 100 nM

SMILES: Cc1ccc(C(O)(C(N)=O)C(F)(F)F)cc1-c1cnc(N)c(N2CCN(CCC#N)CC2)n1 (stereo not drawn) [Example 125, 2-(3-(5-amino-6-(4-(2-cyanoethyl)piperazin-1-yl)pyrazin-2-yl)-4-methylphenyl)-3,3,3-trifluoro-2-hydroxypropanamide trifluoroacetate]
- IC50 [4]: < 500 nM

SMILES: Cc1ccc(C(O)(C(N)=O)C(F)(F)F)cc1-c1cnc(N)c(C(=O)NCC2(C#N)CC2)n1 (stereo not drawn) [Example 4, 3-amino-6-(5-(3-amino-1,1,1-trifluoro-2-hydroxy-3-oxopropan-2-yl)-2-methylphenyl)-N-((1-cyanocyclopropyl)methyl)pyrazine-2-carboxamide trifluoroacetate]
- IC50 [3]: < 100 nM

SMILES: Cc1ccc(C(O)(C(N)=O)C(F)(F)F)cc1-c1cnc(N)c(C(=O)NCC(C)(C)O)n1 (stereo not drawn) [Example 1, 3-Amino-6-(5-(3-amino-1,1,1-trifluoro-2-hydroxy-3-oxopropan-2-yl)-2-methylphenyl)-N-(2-hydroxy-2-methylpropyl)pyrazine-2-carboxamide]
- IC50 [3]: < 100 nM

SMILES: Cc1ccc(C(O)(C(N)=O)C(F)(F)F)cc1-c1cnc(N)c(C#CC(C)C)n1 (stereo not drawn) [Example 49, 2-(3-(5-amino-6-(3-methylbut-1-ynyl)pyrazin-2-yl)-4-methylphenyl)-3,3,3-trifluoro-2-hydroxypropanamide]
- IC50 [2]: < 500 nM

SMILES: Cc1ccc(C(O)(CNC=O)C(F)(F)F)cc1-c1cnc(N)c(-c2cnc(C3CC3)s2)n1 (stereo not drawn) [Example 102, N-(2-(3-(5-amino-6-(2-cyclopropylthiazol-5-yl)pyrazin-2-yl)-4-methylphenyl)-3,3,3-trifluoro-2-hydroxypropyl)formamide trifluoroacetate]
- IC50 [1]: < 100 nM
